What was measured:
Format in all cases: cell-based
[1] = system: caspase 3/7 activity in HepG2 cells; assay: Apo-ONE Homogeneous Caspase-3/7 Assay, CDCA-induced apoptosis; details: for caspase-3/7 attenuation: HepG2 cells, CDCA 200 μM, 12 hours, 10 μM EPA, 10 μM DHA, or 5 μM EPA+5 μM DHA
Method: Cultured HepG2 cells were treated with 50, 100, or 200 μM CDCA in the presence and absence of 10 μM EPA, 10 μM DHA, or 5 μM EPA+5 μM DHA. Controls included cells incubated with vehicle alone (EtOH). Apoptosis was evaluated after 4, 8, 12, 18, and 24 hours using the Apo-ONE®
(§1) Homogeneous Caspase-3/7 Assay (Promega Corporation, Madison, Wis., United States of America). Specific apoptotic mediators (Fas and TRAIL-R2) were evaluated at 0.5, 1, 1.5, 2, and 4 hrs using quantitative real-time RT-PCR.
Experimental Design. HepG2 cells were plated and grown to 95% confluence for all experiments, except for fluorescent cell staining, where cells where grown to 50% confluence. Cells were treated with CDCA […] (Sigma-Aldrich), ±EPA 1-10 μM (Nu-check Prep, Elysian, Minn., United States of America), and ±DHA 10 μM (Nu-check Prep). HepG2 cells were treated for 4, 8, 12, 18, 24 hours for cell viability and caspase assays. Cells were treated for 0.5, 1, 1.5, 2, 4 hour for mRNA analysis by quantitative real time RT-PCR.
Caspase assay. Apoptosis was evaluated using the Apo-ONE® Homogeneous Caspase-3/7 Assay purchased from Promega Corporation (Madison, Wis., United States of America) and performed according to the manufacturer's instructions. HepG2 cells were treated for 4, 8, 12, 18, 24 hours followed by the addition of caspase-3/7 reagent and incubation for 4 hours in the dark on a rocking shaker at low speed. Results were read at fluorescein 485 nm/535 nm with a Victor 2, Perkin-Elmer Wallace 1420 multilabel counter (Shelton, Conn., United States of America).

[2] = system: Fas mRNA in HepG2 cells; assay: Fas mRNA by quantitative real-time RT-PCR; details: HepG2 cells incubated with CDCA 200 μM alone; 0.5 hours; relative to vehicle control
Method: as §1
Experimental Design. HepG2 cells were plated and grown to 95% confluence for all experiments, except for fluorescent cell staining, where cells where grown to 50% confluence. […] HepG2 cells were treated for 4, 8, 12, 18, 24 hours for cell viability and caspase assays. Cells were treated for 0.5, 1, 1.5, 2, 4 hour for mRNA analysis by quantitative real time RT-PCR.
Quantitative RT-PCR. Total RNA was isolated from confluent cultures according to manufacturer's instructions with TRIzol™ reagent (Invitrogen, Carlsbad, Calif., United States of America). First-strand cDNAs were synthesized from 2 μg of total RNA in a 21 μl reaction volume using the SuperScript™ First-Strand Synthesis System for RT-PCR (Invitrogen) in accordance with the manufacturer's instructions. Quantitative PCR was performed in triplicate using the Model 7500 Sequence Detection System (Applied Biosystems, Foster City, Calif., United States of America). […] The change in fluorescence of SYBR Green in every cycle was monitored by the system software, and the threshold cycle (CT) above the background for each reaction was calculated. […] The mRNA expression level relative to the calibrator was expressed as 2^−ΔΔCT.

[3] = Cell viability by trypan blue staining; details: human, HepG2 cells; 2 hour treatment with CDCA alone; trypan blue; read-out: viable cells
Method: (§2) Experimental Design. HepG2 cells were plated and grown to 95% confluence for all experiments, except for fluorescent cell staining, where cells where grown to 50% confluence. Cells were treated with CDCA […] (Sigma-Aldrich), ±EPA 1-10 μM (Nu-check Prep, Elysian, Minn., United States of America), and ±DHA 10 μM (Nu-check Prep). […] Cells were treated for 0.5, 1, 1.5, 2, 4 hour for mRNA analysis by quantitative real time RT-PCR.
(§3) Cell Viability. Cell viability was evaluated after treating cells, as described above, followed by trypsinization in order to disperse cells into a 0.2% trypan blue (Sigma-Aldrich) cell suspension mixture. After staining, 10 μL of cell suspension was placed on a hemocytometer with a glass cover slip and evaluated using an inverted microscope (25× magnification). All cells were counted and viability was accessed.

[4] = system: HepG2 cells; assay: Nuclear staining with ethidium bromide/acridine orange; details: cells treated with the substance alone, 2 hours
Method: Nuclear staining. Cells were grown on glass inserts and once 50% confluence was achieved, cells were treated with CDCA±EPA for 2 hours. Immediately following treatment, cells were washed with phosphate buffered saline (PBS), fixed with methanol (−10° C.) for 15 minutes, then washed with PBS. Fixed cells were then stained for 5 minutes with ethidium bromide (100 μg/ml) and acridine orange (100 μg/ml) (EB/AO) dye mixture (Sigma-Aldrich) in PBS. Following staining, cells underwent 5 washes prior to being mounted on glass slides using VECTASHIELD® mounting medium and analyzed using an Olympus America Inc., IX50-FLA inverted reflected light fluorescence microscope (Lake Success, N.Y., United States of America).

[5] = system: pro-inflammatory cytokine (IL-6) mRNA in HepG2 cells; assay: IL-6 mRNA by quantitative RT-PCR; details: CDCA 200 uM, 2 hour incubation
Method: Quantitative RT-PCR. Total RNA was isolated from confluent cultures according to manufacturer's instructions with TRIzol™ reagent (Invitrogen, Carlsbad, Calif., United States of America). First-strand cDNAs were synthesized from 2 μg of total RNA in a 21 μl reaction volume using the SuperScript™ First-Strand Synthesis System for RT-PCR (Invitrogen) in accordance with the manufacturer's instructions. Quantitative PCR was performed in triplicate using the Model 7500 Sequence Detection System (Applied Biosystems, Foster City, Calif., United States of America). Independent PCRs were performed using the same cDNA for both the gene of interest and the 18S rRNA, using the SYBR Green PCR Master Mix (Applied Biosystems). Specific primers were designed for the genes of interest (Fas, TRAIL-R2, and IL-6). […] The change in fluorescence of SYBR Green in every cycle was monitored by the system software, and the threshold cycle (CT) above the background for each reaction was calculated. […] The mRNA expression level relative to the calibrator was expressed as 2^−ΔΔCT. […]
IL6 mRNA levels were measured by quantitative RT-PCR after a 2 hour incubation in a HepG2 cells. […] Statistical significance was determined using an ANOVA with Tukey's LSD. […] Statistical significance was determined using an ANOVA with Tukey's LSD.

[6] = system: HepG2 cells; assay: Cell viability by trypan blue staining
Method: as §2, §3

SMILES	apoptotic effect of CDCA (caspase 3/7 activity) ([1]; CDCA 50-200 μM, across all time points (4-24 hours))	time of peak caspase activity ([1]; HepG2 cells treated with 200 μM CDCA) [h]	increase in Fas mRNA levels [2] [fold]	viability at 2 h [3] [%]	EB/AO nuclear staining appearance [4]	pro-inflammatory cytokine (IL-6) mRNA expression [5]	caspase-3/7 attenuation [1] [%]	viable cells ([6]; 2 hour treatment with CDCA and EPA, trypan blue) [%]	total cell count relative to cells exposed to medium alone ([6]; treatment with CDCA and EPA) [%]
C[C@H](CCC(=O)O)[C@H]1CC[C@H]2[C@@H]3[C@H](O)C[C@@H]4C[C@H](O)CC[C@]4(C)[C@H]3CC[C@]12C [CDCA, chenodeoxycholic acid]	dose-dependent	12	4.7	88	cellular integrity is lost	significantly increased			
CC/C=C\C/C=C\C/C=C\C/C=C\C/C=C\C/C=C\CCC(=O)O [DHA, docosahexaenoic acid]							9		
CC/C=C\C/C=C\C/C=C\C/C=C\C/C=C\CCCC(=O)O [EPA, eicosapentaenoic acid]							22	100	75

— patent publication US20120277316A1, “METHODS AND COMPOSITIONS FOR TREATING AND PREVENTING PARENTERAL NUTRITION ASSOCIATED LIVER DISEASE” (University of Tennesse Research Foundation a university, priority 2010, published 2012)
